Laboratory results reported in PubChem BioAssay AID180 (DTP/NCI, 2004).
Several values for one entry are separate records, joined by “and”; a condition that tells them apart may be missing. Equal values may be shown once.

System: BDF1 mice, Adenocarcinoma 755 s.c., tumor weight T/C
Assay: NCI In Vivo Anticancer Drug Screen. Data for tumor model Adenocarcinoma 755 (subcutaneous) in B6D2F1 (BDF1) mice
Conditions: endpoint: mean tumor weight, schedule: Q01DX011 (ip), higher = larger tumour
Outline: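 Transplantable tumor implanted; mice dosed with compound or vehicle; survival or tumor size recorded; ratio of treated to vehicle control reported.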

[1] = dose: 125.0 mg/kg/injection, vehicle: methylcellulose (MC)
[2] = dose: 250.0 mg/kg/injection, vehicle: methylcellulose (MC)
[3] = dose: 12.5 mg/kg/injection, vehicle: saline

Cc1cnc(SCc2ccc(Cl)cc2)[nH]c1=O
T/C (dose: 15.0 mg/kg/injection, vehicle: methylcellulose (MC)): 74 % of control
T/C (dose: 31.0 mg/kg/injection, vehicle: methylcellulose (MC)): 84 % of control
T/C (dose: 62.0 mg/kg/injection, vehicle: methylcellulose (MC)): 57 % of control
T/C [1]: 49 % of control
T/C [2]: 81 % of control

COc1cc(C=O)cc(O)c1O
T/C (dose: 62.5 mg/kg/injection, vehicle: methylcellulose (MC)): 72 % of control
T/C [1]: 58 % of control
T/C [2]: 40 % of control

N#[N+]c1nc2ncnc(N)c2[nH]1
T/C [3]: 101 % of control
T/C (dose: 25.0 mg/kg/injection, vehicle: saline): 70 % of control

CCOc1ccc2nc(S(N)(=O)=O)sc2c1
T/C (dose: 50.0 mg/kg/injection, vehicle: methylcellulose (MC)): 60 % of control
T/C (dose: 100.0 mg/kg/injection, vehicle: carboxymethylcellulose (CMC)): 23 % of control and 30 % of control
T/C (dose: 100.0 mg/kg/injection, vehicle: methylcellulose (MC)): 89 % of control
T/C (dose: 200.0 mg/kg/injection, vehicle: carboxymethylcellulose (CMC)): 13 % of control
T/C (dose: 400.0 mg/kg/injection, vehicle: methylcellulose (MC)): 19 % of control

CCCCC(CCCC)(C(=O)OCC)C(=O)OCC
T/C (dose: 40.6 mg/kg/injection, vehicle: methylcellulose (MC)): 65 % of control
T/C (dose: 81.25 mg/kg/injection, vehicle: methylcellulose (MC)): 63 % of control
T/C (dose: 162.5 mg/kg/injection, vehicle: methylcellulose (MC)): 52 % of control

CN(C)S(=O)(=O)c1nc2nc[nH]c(=O)c2[nH]1
T/C (dose: 30.0 mg/kg/injection, vehicle: carboxymethylcellulose (CMC)): 108 % of control
T/C (dose: 60.0 mg/kg/injection, vehicle: carboxymethylcellulose (CMC)): 158 % of control
T/C (dose: 120.0 mg/kg/injection, vehicle: carboxymethylcellulose (CMC)): 101 % of control
T/C (dose: 240.0 mg/kg/injection, vehicle: carboxymethylcellulose (CMC)): 91 % of control

S=c1nc[nH]c2c1ncn2C1CCCCO1 (stereo unspecified)
T/C (dose: 5.0 mg/kg/injection, vehicle: carboxymethylcellulose (CMC)): 29 % of control
T/C (dose: 10.0 mg/kg/injection, vehicle: carboxymethylcellulose (CMC)): 16 % of control

O=C(O)C(O)C(F)(F)F (stereo unspecified)
T/C (dose: 31.0 mg/kg/injection, vehicle: other): 89 % of control
T/C (dose: 62.5 mg/kg/injection, vehicle: other): 82 % of control
T/C (dose: 125.0 mg/kg/injection, vehicle: other): 111 % of control
T/C (dose: 250.0 mg/kg/injection, vehicle: other): 46 % of control

Cc1c2ccccc2c(C)c2c1ccc1ccccc12
T/C (dose: 9.0 mg/kg/injection, vehicle: carboxymethylcellulose (CMC)): 63 % of control
T/C (dose: 19.0 mg/kg/injection, vehicle: carboxymethylcellulose (CMC)): 54 % of control
T/C (dose: 38.0 mg/kg/injection, vehicle: carboxymethylcellulose (CMC)): 51 % of control

Nc1ncnc2c1cnn2CCCl
T/C (dose: 1.5 mg/kg/injection, vehicle: methylcellulose (MC)): 79 % of control
T/C (dose: 1.5 mg/kg/injection, vehicle: saline): 104 % of control
T/C (dose: 3.1 mg/kg/injection, vehicle: methylcellulose (MC)): 31 % of control
T/C (dose: 3.1 mg/kg/injection, vehicle: saline): 90 % of control
T/C (dose: 4.0 mg/kg/injection, vehicle: carboxymethylcellulose (CMC)): 50 % of control and 65 % of control
T/C (dose: 6.2 mg/kg/injection, vehicle: methylcellulose (MC)): 26 % of control and 33 % of control
T/C (dose: 6.2 mg/kg/injection, vehicle: saline): 73 % of control
T/C (dose: 12.5 mg/kg/injection, vehicle: methylcellulose (MC)): 9 % of control
T/C [3]: 25 % of control
T/C (dose: 16.0 mg/kg/injection, vehicle: carboxymethylcellulose (CMC)): 35 % of control
